Laboratory results published in ChEMBL document CHEMBL1156829 (Proc Natl Acad Sci U S A, 2008).

Experiments:
[1] = NOVARTIS: Cytotoxicity against human hepatocellular carcinoma cell line (Huh7); type: toxicity, cell-based, Huh-7; conditions: Huh7 cells (hepatocellular carcinoma cell line)
Plasmodium falciparum [2] = experiment: NOVARTIS: Inhibition of Plasmodium falciparum 3D7 (drug-susceptible) proliferation in erythrocyte-based infection assay; type: functional, organism-based; conditions: Plasmodium falciparum, 3D7
Plasmodium falciparum [3] = experiment: NOVARTIS: Inhibition of Plasmodium falciparum W2 (drug-resistant) proliferation in erythrocyte-based infection assay; type: functional, organism-based
[4] = Plasmodium falciparum, W2, read-out: EC50

Structure (SMILES) | CC50 [1] [nM] | EC50 (Plasmodium falciparum [2]) [nM] | EC50 (Plasmodium falciparum [3]; [4]) [nM] | EC50 (Plasmodium falciparum [3])
O=C(COc1ccc(Cl)cc1)Nc1cccc(-c2nc3ncccc3o2)c1 | > 100000 | 1640 | 311 | –
O=C(c1cccs1)N(Cc1cccs1)c1ccc([N+](=O)[O-])cc1 | > 10000 | 677 | 888 | –
CCc1c(C#N)c(N)nc(SCC(=O)c2ccc(C)cc2)c1C#N | > 100000 | 1200 | – | No fit
c1ccc(C[C@H]2CN(c3ccccc3)CCN2CCNCCOc2ccccc2)cc1 | > 5320 | 261 | 200 | –
CN1CCN(Cc2c(O)ccc3c(=O)c(Oc4ccc(C(C)(C)C)cc4)c(C(F)(F)F)oc23)CC1 | > 100000 | 1800 | 547 | –
Oc1cccc2ccc[n+](CC(O)Cn3c4ccccc4c4ccccc43)c12 (stereo not drawn) | 49200 | 199 | 651 | –
O=C(Cn1nc([N+](=O)[O-])nc1Br)NC1CCCCC1 | > 100000 | 4510 | 2660 | –
COc1ccc(C=CC(=O)NC(=O)c2ccccc2O)cc1 | > 73500 | 132 | 479 | –
c1ccc(CNc2nc(-c3ccccn3)nnc2-c2ccccc2)cc1 | 630 | 182 | 326 | –
NNc1ncnc2[nH]cnc12 | > 10000 | 303 | 666 | –
c1ccc2c(c1)ccc[n+]2CCCCCC[n+]1cccc2ccccc21 | > 10000 | 406 | 780 | –
Cc1ccn2c(NC(C)(C)CC(C)(C)C)c(-c3ccccc3OC(=O)c3ccccc3Br)nc2c1 | > 10000 | 760 | 117 | –
CCOc1ccc2nc(Sc3nc(Nc4cccc(C)c4)nc(Nc4cccc(C)c4)n3)sc2c1 | > 100000 | 5810 | > 12500 | –
O=C(N1CCCCC1)n1nnc2ccccc21 | > 100000 | 1310 | 396 | –
CC(=O)Nc1ccc(NS(=O)(=O)c2cc([N+](=O)[O-])ccc2Cl)cc1 | > 100000 | > 12500 | 475 | –
CC(C)CNC(=O)c1cnc(NCCCN2CCCCC2C)nc1NCC1CCCCC1 (stereo not drawn) | > 10000 | 434 | 1170 | –
S=C(NN=Cc1ccccn1)NC1CC2CC1C1C=CCC21 (stereo not drawn) | > 1140 | 123 | 109 | –
Cc1ccc2nc3c(c(NCCCN(C)C)c2c1)CCC3 | > 10000 | 935 | 1560 | –

Structure (SMILES) | CC50 [1] [nM] | EC50 (Plasmodium falciparum [2]) [nM] | EC50 (Plasmodium falciparum [3]; [4]) [nM] | EC50 (Plasmodium falciparum [3])
CC1CCCCN1CCCNCc1ccc(OCc2ccccc2)cc1 (stereo not drawn) | 4650 | 385 | 298 | –
CCOC(=O)C1CSC(c2ccc(C(F)(F)F)cc2)N1C(=O)/C=C/c1ccccc1 (stereo not drawn) | > 7950 | > 1340 | 381 | –
Cc1cccc(CCNc2cc(C)nc3nc(C)nn23)c1 | > 100000 | 2420 | 2290 | –
C[N+](C)(CC#Cc1ccccc1)CC#Cc1ccccc1 | > 100000 | 1930 | 679 | –
Cc1ccn2c(NC(C)(C)CC(C)(C)C)c(-c3ccccc3OC(=O)c3ccc4c(c3)OCO4)nc2c1 | > 10000 | 831 | 24.1 | –
COc1ccc(C2CC(=O)C3=C(C2)NC(C)=C(C(=O)OC2CCCCC2)C3c2ccc(F)cc2)cc1OC (stereo not drawn) | 15200 | 138 | 53 | –
COc1ccccc1CN1CCC(S(=O)(=O)c2ccccc2)CC1 | 1080 | 349 | 52.3 | –
COC(=O)c1ccccc1NC(=O)CN(C)c1nc(-c2ccc(OC)cc2)no1 | > 10000 | 786 | 449 | –
C=C(C[N+](C)(C)C)c1ccc([N+](=O)[O-])cc1 | > 10000 | 317 | 279 | –
COC(=O)c1c(S(=O)(=O)NCCc2ccccc2)sc2c1CCN(Cc1cccnc1)C2 | > 10000 | 1580 | 1910 | –
CC(C)CNc1nc(NCCCN)ncc1C(=O)NCCc1ccccc1 | > 10000 | 598 | > 1250 | –
Brc1ccc(Nc2nc3ccccc3nc2Nc2ccc(Br)cc2)cc1 | 20600 | 809 | 854 | –
Cc1cn2c3ccccc3n(CCN3CCCC3)c2n1 | 60500 | 995 | 889 | –
O=[N+]([O-])c1ccc(-c2cn3nc(C(F)(F)F)sc3n2)cc1 | > 10000 | 1050 | 818 | –
CCCn1c(C(CC)N2CCNCC2)nc2ccccc2c1=O (stereo not drawn) | > 10000 | 285 | 637 | –
O=[N+]([O-])c1ccc(-c2nc3ccccc3n2-c2cc(-c3ccccc3)nn2-c2ccccc2)cc1 | > 10000 | > 1620 | > 611 | –
COc1cc[n+](OC(=O)N2CCCCC2)c(C)c1 | 36600 | 188 | 810 | –
Clc1ccc2c(N3CCC(n4cccc4)CC3)ccnc2c1 | > 100000 | 1020 | 1050 | –
